In patent US20080274987A1, “Novel alpha glucosidase activator, pulicarside 1” (HEJ Research Institute, priority 2006, published 2008):
Read-outs that look alike come from different tables or passages of the source.

Tests used:
[1] = biological target: α-glucosidase (E.C.3.2.1.20); experiment: α-Glucosidase enzyme inhibition assay (PNP-G substrate, spectrophotometric); type: biochemical, Saccharomyces species
Experimental: (§1) α-Glucosidase (E.C.3.2.1.20) enzyme inhibition assay was performed according to the slightly modified method of Matsui et al. α-glucosidase (E.C.3.2.1.20) from Saccharomyces species, purchased from Wako Pure Chemical Industries Ltd. (Wako 076-02841). The enzyme inhibition was measured spectrophotometrically at pH 6.9 and at 37° C. using 0.7 mM p nitrophenyl-α-D-glucopyranoside (PNP-G) as a substrate and 500 m units/mL enzyme, in 50 mM sodium phosphate buffer containing 100 mM NaCl. […] The increment in absorption at 400 nm, due to the hydrolysis of PNP-G by α-glucosidase, was monitored continuously on microplate spectrophotometer (Spectra Max Molecular Devices, USA).
[T. Matsui, C. Yoshimoto, K. Osajima, T. Oki, and Y. Osajima. Biosci. Biotech. Biochem., 1996, 60, 2019].

α-glucosidase = experiment: Rate of α-glucosidase enzyme reaction as a function of incubation time and concentration of Compound 1; type: biochemical, Saccharomyces species
Experimental: as §1
Several unique observations were made during the studies conducted on Compound 1 activity. For example, it was observed that the enzyme generally looses its activity during the operational period. We have a set of experiment to see how the enzyme lost its activity with almost all activity gone within one hour. (Table 2).
As a result we conclude that the activity of Compound 1 is concentration dependent. The mechanism postulated here includes enhancement of stability of the enzyme to react with the substrate, which is not observed in negative control in the absence of this compound 1. From the structures it is clearly evidenced that the methylene-dioxy ring and as well as the sugar molecule is responsible for the enzyme activation. […] So the COO— group is playing a crucial role for the inhibitory effect on the enzyme and the gugar molecule and methylene-dioxy ring is responsible for the activation of the enzyme.

[2] = against α-glucosidase, pH 6.9, 37° C., 0.7 mM PNP-G, read-out: IC50 ± SEM
[3] = unit inferred, read-out: IC50 (inhibitory effect on the enzyme)

SMILES	IC50 ± SEM ([1]; against α-glucosidase, pH 6.9, 37° C., 0.7 mM PNP-G)	Rate of enzyme reaction (μM of alpha-glucose from the p-nitrophenyl at 400 nm) (α-glucosidase; 0.05 mM Compound 1, incubation 4 min)	Rate of enzyme reaction (μM of alpha-glucose from the p-nitrophenyl at 400 nm) (α-glucosidase; 0.05 mM Compound 1, incubation 24 min)	Rate of enzyme reaction (μM of alpha-glucose from the p-nitrophenyl at 400 nm) (α-glucosidase; 0.05 mM Compound 1, incubation 45 min)	Rate of enzyme reaction (μM of alpha-glucose from the p-nitrophenyl at 400 nm) (α-glucosidase; 0.05 mM Compound 1, incubation 66 min)	Rate of enzyme reaction (μM of alpha-glucose from the p-nitrophenyl at 400 nm) (α-glucosidase; 0.10 mM Compound 1, incubation 4 min)	Rate of enzyme reaction (μM of alpha-glucose from the p-nitrophenyl at 400 nm) (α-glucosidase; 0.10 mM Compound 1, incubation 24 min)	Rate of enzyme reaction (μM of alpha-glucose from the p-nitrophenyl at 400 nm) (α-glucosidase; 0.10 mM Compound 1, incubation 45 min)	Rate of enzyme reaction (μM of alpha-glucose from the p-nitrophenyl at 400 nm) (α-glucosidase; 0.10 mM Compound 1, incubation 66 min)	Rate of enzyme reaction (μM of alpha-glucose from the p-nitrophenyl at 400 nm) (α-glucosidase; 0.20 mM Compound 1, incubation 4 min)	Rate of enzyme reaction (μM of alpha-glucose from the p-nitrophenyl at 400 nm) (α-glucosidase; 0.20 mM Compound 1, incubation 24 min)	Rate of enzyme reaction (μM of alpha-glucose from the p-nitrophenyl at 400 nm) (α-glucosidase; 0.20 mM Compound 1, incubation 45 min)	Rate of enzyme reaction (μM of alpha-glucose from the p-nitrophenyl at 400 nm) (α-glucosidase; 0.20 mM Compound 1, incubation 66 min)	Rate of enzyme reaction (μM of alpha-glucose from the p-nitrophenyl at 400 nm) (α-glucosidase; 0.40 mM Compound 1, incubation 4 min)	Rate of enzyme reaction (μM of alpha-glucose from the p-nitrophenyl at 400 nm) (α-glucosidase; 0.40 mM Compound 1, incubation 24 min)	Rate of enzyme reaction (μM of alpha-glucose from the p-nitrophenyl at 400 nm) (α-glucosidase; 0.40 mM Compound 1, incubation 45 min)	Rate of enzyme reaction (μM of alpha-glucose from the p-nitrophenyl at 400 nm) (α-glucosidase; 0.40 mM Compound 1, incubation 66 min)	Effect on α-glucosidase enzymatic activity as compared to the negative control (α-glucosidase; at all the concentrations and time intervals)	IC50 [1, 2]	IC50 [1, 3]
CC1(C)OCC2(C[C@@]34CC[C@H]5[C@@](C)(CCC[C@@]5(C)C(=O)O[C@@H]5O[C@H](CO)[C@@H](O)[C@H](O)[C@H]5O)[C@@H]3CC[C@@H]2C4)O1 (single isomer, unassigned; ent-16) [Pulicarside (1), β-D-glucopyranosyl ent-16,17-acetonyl-(−)-kauran-19-oate]	Enhancer	18.61 µM	8.7 µM	3.85 µM	1.45 µM	19.94 µM	10.38 µM	4.64 µM	1.62 µM	20.89 µM	18.27 µM	13.11 µM	10.13 µM	21.15 µM	19.68 µM	14.8 µM	15.01 µM	enhanced the enzymatic activity	–	–
C[C@@]12CCC[C@@](C)(C(=O)O)[C@H]1CC[C@@]13C[C@@H](CC[C@H]12)[C@@](O)(CO)C3 (single isomer, unassigned; ent-16) [ent-16,17-dihydroxy-(−)-kauran-19-oic acid]	–	–	–	–	–	–	–	–	–	–	–	–	–	–	–	–	–	–	62.2 µM	62.2 ± 0.008 µM
C[C@@]12CCC[C@@](C)(C(=O)O[C@@H]3O[C@H](CO)[C@@H](O)[C@H](O)[C@H]3O)[C@H]1CC[C@@]13C[C@@H](CC[C@H]12)[C@@](O)(CO)C3 [Paniculoside IV (2), paniculoside IV]	–	–	–	–	–	–	–	–	–	–	–	–	–	–	–	–	–	–	407 ± 20 µM	407 ± 20 µM
